Reference: US12257243B2, “5-hydroxy-7-oxabicyclo[2.2.1]heptane-2-carboxamide derivatives for inducing chondrogenesis for treating joint damage” (NOVARTIS AG, priority 2018, dated 2025)
pIC50: −log10 of the molar value. Like-named read-outs stand apart in the source and are kept apart here.

Molecular target: ALP in normal human articular chondrocytes (NHACs)
Test: Alkaline Phosphatase (ALP) activity assay (staining and quantitation) in NHACs, prevention of chondrocyte hypertrophy
Assay type: cell-based
Details: human IL-1 beta 10 ng/mL, 12 days; for pIC50: Fast Blue RR staining, high content imaging, read-out: ALP in NHAC IC50; for ALP in NHAC (% Efficacy): value in parentheses
How it was run: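 Primary human articular chondrocytes plated at 7,500 cells/well in DMEM with 10% FBS alongside test compound, incubated 5 h at 37 °C, then given IL-1β (10 ng/mL final) for 12 days. Fixed cells stained for ALP with Fast Blue RR/naphthol AS-MX, Hoechst counterstain. Read by fluorescence imaging (561 nm) and/or high-content cell scoring.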

For Cn1cc([C@H]2[C@H]3O[C@H](C[C@@H]3O)[C@@H]2C(=O)Nc2cc(C(F)(F)F)ccc2C#N)c(C(F)(F)F)n1 (single isomer, unassigned) [Example 49a, (1R,2R,3S,4R,5N-(2-cyano-5-(trifluoromethyl)phenyl)-5-hydroxy-3-(1-methyl-3-(trifluoromethyl)-1H-pyrazol-4-yl)-7-oxabicyclo[2.2.1]heptane-2-carboxamide or (1S,2S,3R,4S,5R)—N-(2-cyano-5-(trifluoromethyl)phenyl)-5-hydroxy-3-(1-methyl-3-(trifluoromethyl)-1H-pyrazol-4-yl)-7-oxabicyclo[2.2.1]heptane-2-carboxamide], the pIC50 was 5.72 and the “ALP in NHAC (% Efficacy)” value was 101%.

For Cn1cc([C@H]2[C@H]3O[C@H](C[C@@H]3O)[C@@H]2C(=O)Nc2cc(C(F)(F)F)ccc2C#N)c(C(F)(F)F)n1 (single isomer, unassigned) [Example 49b, (1R,2R,3S,4R,5N-(2-cyano-5-(trifluoromethyl)phenyl)-5-hydroxy-3-(1-methyl-3-(trifluoromethyl)-1H-pyrazol-4-yl)-7-oxabicyclo[2.2.1]heptane-2-carboxamide or (1S,2S,3R,4S,5R)—N-(2-cyano-5-(trifluoromethyl)phenyl)-5-hydroxy-3-(1-methyl-3-(trifluoromethyl)-1H-pyrazol-4-yl)-7-oxabicyclo[2.2.1]heptane-2-carboxamide], the pIC50 was 4.64 and the “ALP in NHAC (% Efficacy)” value was 54%.

For Cn1nc(C(F)(F)F)cc1[C@H]1[C@H]2O[C@H](C[C@@H]2O)[C@@H]1C(=O)Nc1cc(C(F)(F)F)ccc1C#N (single isomer, unassigned) [Example 72a, (1R,2R,3S,4R,5S)—N-(2-cyano-5-(trifluoromethyl)phenyl)-5-hydroxy-3-(1-methyl-3-(trifluoromethyl)-1H-pyrazol-5-yl)-7-oxabicyclo[2.2.1]heptane-2-carboxamide or (1S,2S,3R,4S,5R)—N-(2-cyano-5-(trifluoromethyl)phenyl)-5-hydroxy-3-(1-methyl-3-(trifluoromethyl)-1-pyrazol-5-yl)-7-oxabicyclo[2.2.1]heptane-2-carboxamide], the pIC50 was 5.51 and the “ALP in NHAC (% Efficacy)” value was 107%.

With Cn1nc(C(F)(F)F)cc1[C@H]1[C@H]2O[C@H](C[C@@H]2O)[C@@H]1C(=O)Nc1cc(C(F)(F)F)ccc1C#N (single isomer, unassigned) [Example 72b, (1R,2R,3S,4R,5S)—N-(2-cyano-5-(trifluoromethyl)phenyl)-5-hydroxy-3-(1-methyl-3-(trifluoromethyl)-1H-pyrazol-5-yl)-7-oxabicyclo[2.2.1]heptane-2-carboxamide or (1S,2S,3R,4S,5R)—N-(2-cyano-5-(trifluoromethyl)phenyl)-5-hydroxy-3-(1-methyl-3-(trifluoromethyl)-1-pyrazol-5-yl)-7-oxabicyclo[2.2.1]heptane-2-carboxamide] the pIC50 (listed as 72?) was 5.74 and the “ALP in NHAC (% Efficacy)” value (listed as 72?) was 88%.

For COc1cc([C@@H]2[C@@H]3O[C@@H](C[C@H]3O)[C@H]2C(=O)Nc2cc(C(F)(F)F)ccc2C#N)ccn1 (single isomer, unassigned) [Example 78a, (1R,2R,3S,4R,5)-N-(2-cyano-5-(trifluoromethyl)phenyl)-5-hydroxy-3-(2-methoxypyridin-4-yl)-7-oxabicyclo[2.2.1]heptane-2-carboxamide or (1S,2S,3R,4S,5R)—N-(2-cyano-5-(trifluoromethyl)phenyl)-5-hydroxy-3-(2-methoxypyridin-4-yl)-7-oxabicyclo[2.2.1]heptane-2-carboxamide], the pIC50 was 5.96 and the “ALP in NHAC (% Efficacy)” value was 100%.

With COc1cc([C@@H]2[C@@H]3O[C@@H](C[C@H]3O)[C@H]2C(=O)Nc2cc(C(F)(F)F)ccc2C#N)ccn1 (single isomer, unassigned) [Example 78b, (1R,2R,3S,4R,5)-N-(2-cyano-5-(trifluoromethyl)phenyl)-5-hydroxy-3-(2-methoxypyridin-4-yl)-7-oxabicyclo[2.2.1]heptane-2-carboxamide or (1S,2S,3R,4S,5R)—N-(2-cyano-5-(trifluoromethyl)phenyl)-5-hydroxy-3-(2-methoxypyridin-4-yl)-7-oxabicyclo[2.2.1]heptane-2-carboxamide] the pIC50 was 5.85 and the “ALP in NHAC (% Efficacy)” value was 88%.

“rac-(1R 2R,3S,4R,5S)—N-(4-fluoro-3-(trifluoromethyl)phenyl-5-hydroxy-3-(1-methyl-3-(trifluoromethyl)-1H-pyrazol-4-yl)-7-oxabicyclo[2.2.1]heptane-2-carboxamide [Example 56]” was tested, and the pIC50 was under 4.52 and the “ALP in NHAC (% Efficacy)” value was 32%.
